These results are taken from ChEMBL document CHEMBL1201862, “PubChem BioAssay data set” (2004).

Molecules are shown by their SMILES.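 A five-concentration, 48-hour dose response in 96-well plates underlies each endpoint, interpolated linearly between surrounding concentrations. GI50 marks 50% less growth.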 Activity calls are given as the source filed them. Cut-off read from the data, not from the text of the source: active = GI50 up to about 1.1 µM and inactive = higher. Some results are limits rather than exact numbers.

Among the test systems are ACHN; BT-549; CAKI-1; COLO 205; HCC 2998; HCT-15; LOX IMVI; MCF7; NCI-H226; NCI-H522; NCI/ADR-RES; OVCAR-8; PC-3; RXF 393; SF-268; SNB-19; SNB-75; SR; T47D; UACC-257.
Assay in all cases: NCI-60 cell line screen, 48 h

With `COc1c2c(cc3c1C(O)N1CC[C@]34[C@H]3O[C@H]3[C@H](OC)C[C@@H]14)OCO2` (stereo not given in full), the GI50 was > 100 µM (inactive) in the assay with ACHN; > 100 µM (inactive) with BT-549; > 100 µM (inactive) in the assay on CAKI-1; 97.9 µM (inactive) in the assay with COLO 205; > 100 µM (inactive) with HCC 2998; 67.3 µM in the assay on HCT-15. The GI50 in the assay on LOX IMVI was 71.4 µM (inactive); in the assay on MCF7 it was 35 µM (inactive); in the assay with NCI-H226 it was > 100 µM (inactive); with NCI-H522, 31.9 µM (inactive); in the assay on NCI/ADR-RES it was > 100 µM (inactive); in the assay with OVCAR-8, > 100 µM (inactive). Besides, the GI50 in the assay on PC-3 was 39.3 µM (inactive); in the assay on RXF 393, 67.5 µM (inactive); in the assay on SF-268 it was > 100 µM (inactive); with SNB-19, > 100 µM (inactive); in the assay on SNB-75 it was 86.3 µM (inactive); in the assay on SR, 21.9 µM (inactive). Besides, the results for the GI50 in the assay with T47D and with UACC-257 were > 100 µM (inactive) and 64.6 µM (inactive), respectively.

Consider `CCc1nc(Cl)nc(Cl)c1Cl`, for which the GI50 in the assay with ACHN is 0.34 µM (active); in the assay on BT-549 it was 2.01 µM (inactive); with CAKI-1 it was 0.193 µM (active); with COLO 205 it was 0.284 µM (active); with HCC 2998, 0.706 µM (active); in the assay with HCT-15, 0.318 µM. Besides, the GI50 with LOX IMVI was 0.0826 µM (active); in the assay on MCF7, 0.403 µM (active); in the assay with NCI-H226 it was 6.5 µM (inactive); in the assay on NCI-H522 it was 0.0494 µM (active); in the assay on NCI/ADR-RES, 2.52 µM (inactive); in the assay on OVCAR-8 it was 1.04 µM (active). Besides, the GI50 in the assay on PC-3 is 1.26 µM (inactive); with RXF 393, 1.74 µM (inactive); in the assay with SF-268, 0.54 µM (active); in the assay with SNB-19, 3.59 µM (inactive); with SNB-75, 5.53 µM (inactive); with SR, 0.416 µM (active). The GI50 in the assay on T47D was 5.55 µM (inactive); with UACC-257, 0.547 µM (active).

Turning to `O=C1c2cc(Cl)ccc2-n2c(noc2=O)C2CSCN12` (stereo not given), the GI50 was > 100 µM (inactive) with ACHN; > 100 µM (inactive) in the assay on BT-549; > 100 µM (inactive) in the assay on CAKI-1; > 100 µM (inactive) in the assay with COLO 205; > 100 µM (inactive) in the assay with HCC 2998; greater than 100 µM in the assay with HCT-15. The GI50 in the assay on LOX IMVI, in the assay on MCF7, in the assay with NCI-H226, with NCI-H522, in the assay with NCI/ADR-RES and in the assay with OVCAR-8 was > 100 µM (inactive) each time. The GI50 in the assay with PC-3, in the assay with RXF 393, in the assay on SF-268, in the assay on SNB-19, in the assay on SNB-75 and in the assay with SR was > 100 µM (inactive) in each case. In addition, the GI50 in the assay with T47D and with UACC-257 was > 100 µM (inactive) each time.
